Experiments:
Assay type in all cases: functional
Paramphistomum [1] = assay: Anthelmintic activity against Paramphistomum assessed as mortality at 40 ug/ml after 2 hrs relative to control
Paramphistomum [2] = assay: Anthelmintic activity against Paramphistomum assessed as mortality at 40 ug/ml after 6 hrs relative to control
Paramphistomum [3] = assay: Anthelmintic activity against Paramphistomum assessed as mortality at 80 ug/ml after 4 hrs relative to control
Paramphistomum [4] = assay: Anthelmintic activity against Paramphistomum assessed as mortality at 80 ug/ml after 2 hrs relative to control
Paramphistomum [5] = assay: Anthelmintic activity against Paramphistomum assessed as mortality at 40 ug/ml after 1 hr relative to control
Paramphistomum [6] = assay: Anthelmintic activity against Paramphistomum assessed as mortality at 80 ug/ml after 1 hr relative to control
Paramphistomum [7] = assay: Anthelmintic activity against Paramphistomum assessed as mortality at 80 ug/ml after 6 hrs relative to control
Paramphistomum [8] = assay: Anthelmintic activity against Paramphistomum assessed as mortality at 40 ug/ml after 4 hrs relative to control

For `CCSc1nnc(COc2ccc3nc(NC(=O)OC)sc3c2)o1`, the mortality at 40 µg/mL (Paramphistomum [1]) was 40%, the mortality at 40 µg/mL (Paramphistomum [2]) was 80% and the mortality at 80 µg/mL (Paramphistomum [3]) was 60%. It also gave a mortality at 80 µg/mL (Paramphistomum [4]) of 60%, a mortality at 40 µg/mL (Paramphistomum [5]) of 10% and a mortality at 80 µg/mL (Paramphistomum [6]) of 20%. It also gave a mortality at 80 µg/mL (Paramphistomum [7]) of 80% and a mortality at 40 µg/mL (Paramphistomum [8]) of 50%.

Compound `COC(=O)Nc1nc2ccc(OCc3nnc(SCC(=O)c4ccc(Br)cc4)o3)cc2s1` has a mortality at 40 µg/mL (Paramphistomum [1]) of 40%, a mortality at 40 µg/mL (Paramphistomum [2]) of 60% and a mortality at 80 µg/mL (Paramphistomum [4]) of 100%. For the same compound, the mortality at 40 µg/mL (Paramphistomum [5]) was 20%, the mortality at 80 µg/mL (Paramphistomum [6]) was 60% and the mortality at 40 µg/mL (Paramphistomum [8]) was 60%.

`COC(=O)Nc1nc2ccc(OCc3nnc(SCc4ccccc4)o3)cc2s1` was tested, and the mortality at 40 µg/mL (Paramphistomum [1]) was 30%, the mortality at 40 µg/mL (Paramphistomum [2]) was 60% and the mortality at 80 µg/mL (Paramphistomum [3]) was 90%. The mortality at 80 µg/mL (Paramphistomum [4]) was 60%, the mortality at 40 µg/mL (Paramphistomum [5]) was 30% and the mortality at 80 µg/mL (Paramphistomum [6]) was 30%. It also gave a mortality at 80 µg/mL (Paramphistomum [7]) of 100% and a mortality at 40 µg/mL (Paramphistomum [8]) of 50%.

`COC(=O)Nc1nc2ccc(OCc3nnc(S)n3-c3ccccc3)cc2s1` showed a mortality at 40 µg/mL (Paramphistomum [1]) of 0%, a mortality at 40 µg/mL (Paramphistomum [2]) of 0% and a mortality at 80 µg/mL (Paramphistomum [3]) of 0%. It also gave a mortality at 80 µg/mL (Paramphistomum [4]) of 0%, a mortality at 40 µg/mL (Paramphistomum [5]) of 0% and a mortality at 80 µg/mL (Paramphistomum [6]) of 0%. For the same compound, the mortality at 80 µg/mL (Paramphistomum [7]) was 0% and the mortality at 40 µg/mL (Paramphistomum [8]) was 0%.

With `CCOC(=O)CSc1nnc(COc2ccc3nc(NC(=O)OC)sc3c2)o1` the mortality at 40 µg/mL (Paramphistomum [1]) was 20%, the mortality at 40 µg/mL (Paramphistomum [2]) was 30% and the mortality at 80 µg/mL (Paramphistomum [3]) was 50%. It also gave a mortality at 80 µg/mL (Paramphistomum [4]) of 30%, a mortality at 40 µg/mL (Paramphistomum [5]) of 10% and a mortality at 80 µg/mL (Paramphistomum [6]) of 20%. It also gave a mortality at 80 µg/mL (Paramphistomum [7]) of 60% and a mortality at 40 µg/mL (Paramphistomum [8]) of 30%.

`COC(=O)Nc1nc2ccc(OCc3nnc(SCC(=O)c4ccc(Cl)cc4)o3)cc2s1` was tested, and the mortality at 40 µg/mL (Paramphistomum [1]) was 40%, the mortality at 40 µg/mL (Paramphistomum [2]) was 40% and the mortality at 80 µg/mL (Paramphistomum [3]) was 100%. For the same compound, the mortality at 80 µg/mL (Paramphistomum [4]) was 70%, the mortality at 40 µg/mL (Paramphistomum [5]) was 40% and the mortality at 80 µg/mL (Paramphistomum [6]) was 50%. It also gave a mortality at 40 µg/mL (Paramphistomum [8]) of 40%.

With `COC(=O)Nc1nc2ccc(OCc3nnc(SC)o3)cc2s1` the mortality at 40 µg/mL (Paramphistomum [1]) was 10%, the mortality at 40 µg/mL (Paramphistomum [2]) was 20% and the mortality at 80 µg/mL (Paramphistomum [3]) was 30%. The mortality at 80 µg/mL (Paramphistomum [4]) was 20%, the mortality at 40 µg/mL (Paramphistomum [5]) was 10% and the mortality at 80 µg/mL (Paramphistomum [6]) was 10%. It also gave a mortality at 80 µg/mL (Paramphistomum [7]) of 40% and a mortality at 40 µg/mL (Paramphistomum [8]) of 20%.

`COC(=O)Nc1nc2ccc(OCc3nnc(SC(=O)CCl)o3)cc2s1` was tested, and the mortality at 40 µg/mL (Paramphistomum [1]) was 10%, the mortality at 40 µg/mL (Paramphistomum [2]) was 20% and the mortality at 80 µg/mL (Paramphistomum [3]) was 30%. The mortality at 80 µg/mL (Paramphistomum [4]) was 30%, the mortality at 40 µg/mL (Paramphistomum [5]) was 10% and the mortality at 80 µg/mL (Paramphistomum [6]) was 10%. It also gave a mortality at 80 µg/mL (Paramphistomum [7]) of 50% and a mortality at 40 µg/mL (Paramphistomum [8]) of 20%.

For `COC(=O)Nc1nc2ccc(OCc3nnc(S)n3-c3ccc(C)cc3)cc2s1`, the mortality at 40 µg/mL (Paramphistomum [1]) was 0%, the mortality at 40 µg/mL (Paramphistomum [2]) was 0% and the mortality at 80 µg/mL (Paramphistomum [3]) was 0%. For the same compound, the mortality at 80 µg/mL (Paramphistomum [4]) was 0%, the mortality at 40 µg/mL (Paramphistomum [5]) was 0% and the mortality at 80 µg/mL (Paramphistomum [6]) was 0%. It also gave a mortality at 80 µg/mL (Paramphistomum [7]) of 0% and a mortality at 40 µg/mL (Paramphistomum [8]) of 0%.

With `COC(=O)Nc1nc2ccc(OCc3nnc(S)n3-c3ccc(Cl)cc3)cc2s1` the mortality at 40 µg/mL (Paramphistomum [1]) was 20%, the mortality at 40 µg/mL (Paramphistomum [2]) was 50% and the mortality at 80 µg/mL (Paramphistomum [3]) was 50%. It also gave a mortality at 80 µg/mL (Paramphistomum [4]) of 20%, a mortality at 40 µg/mL (Paramphistomum [5]) of 10% and a mortality at 80 µg/mL (Paramphistomum [6]) of 20%. For the same compound, the mortality at 80 µg/mL (Paramphistomum [7]) was 80% and the mortality at 40 µg/mL (Paramphistomum [8]) was 30%.

`C=CCSc1nnc(COc2ccc3nc(NC(=O)OC)sc3c2)o1` showed a mortality at 40 µg/mL (Paramphistomum [1]) of 30%, a mortality at 40 µg/mL (Paramphistomum [2]) of 70% and a mortality at 80 µg/mL (Paramphistomum [3]) of 100%. For the same compound, the mortality at 80 µg/mL (Paramphistomum [4]) was 40%, the mortality at 40 µg/mL (Paramphistomum [5]) was 20% and the mortality at 80 µg/mL (Paramphistomum [6]) was 20%. For the same compound, the mortality at 40 µg/mL (Paramphistomum [8]) was 50%.

In the case of `COC(=O)Nc1nc2ccc(OCc3nnc(SCC(=O)c4ccccc4)o3)cc2s1`, the mortality at 40 µg/mL (Paramphistomum [1]) is reported as 20%, the mortality at 40 µg/mL (Paramphistomum [2]) is reported as 30% and the mortality at 80 µg/mL (Paramphistomum [3]) is reported as 50%. It also gave a mortality at 80 µg/mL (Paramphistomum [4]) of 40%, a mortality at 40 µg/mL (Paramphistomum [5]) of 10% and a mortality at 80 µg/mL (Paramphistomum [6]) of 30%. For the same compound, the mortality at 80 µg/mL (Paramphistomum [7]) was 70% and the mortality at 40 µg/mL (Paramphistomum [8]) was 20%.

Work on `O=C(Nc1cc(Cl)cc(Cl)c1O)c1c(O)c(Cl)cc(Cl)c1Cl` [OXYCLOZANIDE] yielded a mortality at 40 µg/mL (Paramphistomum [1]) of 70%, a mortality at 80 µg/mL (Paramphistomum [4]) of 100% and a mortality at 40 µg/mL (Paramphistomum [5]) of 30%. It also gave a mortality at 80 µg/mL (Paramphistomum [6]) of 50% and a mortality at 40 µg/mL (Paramphistomum [8]) of 100%.
